For data set [1], the target named is T1, human cloned 5-HT6 receptors (Homo sapiens, UniProt P50406).
T1 construct: expressed in transfected cells; host or cells: HeLa cells (membrane preparation)
Description: 5-HT6 binding affinity ([3H]-LSD displacement, membranes of Hela cells expressing human cloned 5-HT6 receptors). As to conditions: [3H]-LSD 3.0 nM, Hela cell membranes, 120 min at room temperature. On the procedure: The affinity of test compounds for the serotonin 5-T6 receptor is evaluated in the following manner. Cultured Hela cells expressing human cloned 5-HT6 receptors are harvested and centrifuged at low speed (1,000×g) for 10.0 min to remove the culture media. The harvested cells are suspended in half volume of fresh physiological phosphate buffered saline solution and recentrifuged at the same speed. This operation is repeated. The collected cells are then homogenized in ten volumes of 50 mM Tris.HCl (pH 7.4) and 0.5 mM EDTA. The homogenate is centrifuged at 40,000×g for 30.0 min and the precipitate is collected. The obtained pellet is resuspended in 10 volumes of Tris.HCl buffer and recentrifuged at the same speed. The final pellet is suspended in a small volume of Tris.HCl buffer and the tissue protein content is determined in aliquots of 10-25 μl volumes. Bovine Serum Albumin is used as the standard in the protein determination according to the method described in Lowry et al., J. Biol. Chem., 193:265 (1951). The volume of the suspended cell membranes is adjusted to give a tissue protein concentration of 1.0 mg/ml of suspension. The prepared membrane suspension (10 times concentrated) is aliquoted in 1.0 ml volumes and stored at −70° C. until used in subsequent binding experiments.
Binding experiments are performed in a 96 well microtiter plate format, in a total volume of 200 μl. […] The test compounds are added in 20.0 μl volume.
The reaction is allowed to proceed in the dark for 120 min at room temperature, at which time, the bound ligand-receptor complex is filtered off on a 96 well unifilter with a Packard Filtermate® 196 Harvester. The bound complex caught on the filter disk is allowed to air dry and the radioactivity is measured in a Packard TopCount® equipped with six photomultiplier detectors, after the addition of 40.0 μl Microscint®-20 scintillant to each shallow well. The unifilter plate is heat-sealed and counted in a PackardTopCount® with a tritium efficiency of 31.0%.
Binding in the presence of varying concentrations of test compound is expressed as a percentage of specific binding in the absence of test compound. The results are plotted as log % bound versus log concentration of test compound. […] A linear regression line of data points is plotted, from which the IC50 value is determined and the Ki value is determined based upon the following equation: […]
where L is the concentration of the radioactive ligand used and KD is the dissociation constant of the ligand for the receptor, both expressed in nM.

Where a name gives a salt, the structure may show the parent alone. Read-outs that look alike come from different tables or passages of the source.

T1 sequence (P50406 whole entry): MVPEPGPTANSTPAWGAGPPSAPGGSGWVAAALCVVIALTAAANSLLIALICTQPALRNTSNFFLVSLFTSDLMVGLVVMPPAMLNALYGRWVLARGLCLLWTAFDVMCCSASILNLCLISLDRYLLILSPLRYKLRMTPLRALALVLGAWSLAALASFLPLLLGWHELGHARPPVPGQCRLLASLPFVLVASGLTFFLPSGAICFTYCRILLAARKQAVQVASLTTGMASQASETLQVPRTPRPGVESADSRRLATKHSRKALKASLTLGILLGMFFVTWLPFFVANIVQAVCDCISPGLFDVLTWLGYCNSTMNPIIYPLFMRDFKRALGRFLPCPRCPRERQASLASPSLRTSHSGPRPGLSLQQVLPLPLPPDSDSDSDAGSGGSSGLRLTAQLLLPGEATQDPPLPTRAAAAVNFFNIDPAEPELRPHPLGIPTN

As to `OCCCNCC1CCc2ccc(Oc3ccccc3)cc2O1` (stereo not shown) (as salt: hydrochloride) [Example 15, 3-[(7-phenoxy-chroman-2-ylmethyl)-amino]-propan-1-ol], the melting point was in the range of 178 to 179 °C.
In the case of `c1ccc(COCCCNCC2CCc3ccc(OCc4ccccc4)cc3O2)cc1` (stereo not shown) [Example 11, (7-benzyloxy-chroman-2-ylmethyl)-(3-benzyloxy-propyl)-amine], the Ki in data set [1] (read-out: 5-HT6 Binding Ki) stood at 27 nM.
On the same count and under the same terms, next, `OCCCNCC1CCc2ccc(OCC3CCCCC3)cc2O1` (stereo not shown) [Example 13, 3-[(7-cyclohexylmethoxy-chroman-2-ylmethyl)-amino]-propan-1-ol]: 357 nM; `OCCCNCC1CCc2ccc(Oc3ccccc3)cc2O1` (stereo not shown) [Example 15, 3-[(7-phenoxy-chroman-2-ylmethyl)-amino]-propan-1-ol]: 283 nM.
On to `Cc1nc(COc2ccc3c(c2)OC(CNCCCO)CC3)cs1` (stereo not shown) (as salt: salt) [Example 23, 3-{[7-(2-methyl-thiazol-4-ylmethoxy)-chroman-2-ylmethyl]-amino}-propan-1-ol], for which the melting point lay in the range of 94 to 102 °C.
In turn, `COCCCNC[C@H]1CCc2ccc(OCc3ccccc3)cc2O1` [Example 46, [(2R)-7-benzyloxy-chroman-2-ylmethyl]-(3-methoxy-propyl)-amine] came in with a melting point of 128 to 129 °C. The Ki in data set [1] (read-out: 5-HT6 Binding Ki) came out at 25 nM.
For `OC[C@H](CSCc1ccccc1)NCC1CCc2ccc(OCc3ccccc3)cc2O1` (stereo partly drawn) [Example 37, (2R)-2-[(7-benzyloxy-chroman-2-ylmethyl)-amino]-3-benzylsulfanyl-propan-1-ol] the same measures were 59 to 65 °C and 303 nM.
Molecule `Cc1nc(COc2ccc3c(c2)OC(CNCCCO)CC3)cs1` (stereo not shown) [Example 24, 3-{[7-(2-methyl-thiazol-4-ylmethoxy)-chroman-2-ylmethyl]-amino}-propan-1-ol] showed a Ki in data set [1] (5-HT6 Binding Ki) of 120 nM.
Regarding `c1ccc(COCCCNCC2CCc3ccc(OCc4ccccc4)cc3O2)cc1` (stereo not shown) (as salt: hydrochloride) [Example 11, (7-benzyloxy-chroman-2-ylmethyl)-(3-benzyloxy-propyl)-amine], the melting point lay within 138 to 139 °C.
The same measure, in the same setting: next, `Cc1nc(COc2ccc3c(c2)OC(CNCCCO)CC3)cs1` (stereo not shown) (as salt: HCl) [Example 24, 3-{[7-(2-methyl-thiazol-4-ylmethoxy)-chroman-2-ylmethyl]-amino}-propan-1-ol]: 123 to 128 °C.
Take `OCCCNC[C@H]1CCc2ccc(OCc3ccccc3)cc2O1` [Example 45, 3-{[(2R)-7-benzyloxy-chroman-2-ylmethyl]-amino}-propan-1-ol]: the melting point was 119 °C. For the same molecule, the Ki in data set [1] (read-out: 5-HT6 Binding Ki) came out at 9 nM.
Regarding `CCCCNCC1CCc2ccc(OCc3ccccc3)cc2O1` (stereo not shown) (as salt: hydrochloride) [Example 12, (7-benzyloxy-chroman-2-ylmethyl)-butyl-amine], the melting point lay in the range of 150 to 151 °C.
Same read-out and setting: in the case of `c1ccc(CCCNCC2CCc3ccc(OCc4ccccc4)cc3O2)cc1` (stereo not shown) (as salt: hydrochloride) [Example 10, (7-benzyloxy-chroman-2-ylmethyl)-(3-phenyl-propyl)-amine] it was 138 to 139 °C; in that of `CCCCOCCCNCC1CCc2ccc(OCc3ccccc3)cc2O1` (stereo not shown) (as salt: hydrochloride) [Example 8, (7-benzyloxy-chroman-2-ylmethyl)-(3-butoxy-propyl)-amine], 130 to 132 °C.
`OCCCNCCC1CCc2ccc(OCc3ccccc3)cc2O1` (stereo not shown) [Example 42, 3-{[2-(7-Benzyloxy)chroman-2-yl]ethylamino}propan-1-ol Hydrochloride]: the Ki in data set [1] (read-out: 5-HT6 Binding Ki) was found to be 107 nM.
Consider `OCCCNCC1CCc2ccc(OCC3CCCCC3)cc2O1` (stereo not shown) (as salt: hydrochloride) [Example 13, 3-[(7-cyclohexylmethoxy-chroman-2-ylmethyl)-amino]-propan-1-ol], for which the melting point was in the range of 159 to 160 °C.
On to `OCCNCC1Cc2ccc(OCc3ccccc3)cc2O1` (stereo not shown) [Example 51, 2-{[6-(Benzyloxy)-2,3-dihydrobenzofuran-2-ylmethyl]amino}ethanol Hydrochloride], for which, in data set [1] (read-out: 5-HT6 Binding Ki), the Ki is 386 nM.
Molecule `O=[N+]([O-])c1cccc(OCCCNCC2CCc3ccc(OCc4ccccc4)cc3O2)c1` (stereo not shown) [Example 33, (7-benzyloxy-chroman-2-ylmethyl)-[3-(3-nitro-phenoxy)-propyl]-amine] had a melting point of 82 to 87 °C. Further, the Ki in data set [1] (read-out: 5-HT6 Binding Ki) is 69 nM.
As to `CCCCNCC1CCc2ccc(OCc3ccccc3)cc2O1` (stereo not shown) [Example 12, (7-benzyloxy-chroman-2-ylmethyl)-butyl-amine], in data set [1] (read-out: 5-HT6 Binding Ki), the inhibitory constant (Ki) was determined as 43 nM.
Still for that read-out and setting: next, `c1ccc(CCCNCC2CCc3ccc(OCc4ccccc4)cc3O2)cc1` (stereo not shown) [Example 10, (7-benzyloxy-chroman-2-ylmethyl)-(3-phenyl-propyl)-amine]: 44 nM.
In data set [1] (5-HT6 Binding Ki), `Cc1nc(COc2ccc3c(c2)OC(CNCCCO)CC3)cs1` (stereo not shown) [Example 23, 3-{[7-(2-methyl-thiazol-4-ylmethoxy)-chroman-2-ylmethyl]-amino}-propan-1-ol] showed a Ki of 41 nM.
The molecule `OCCCNCc1cc2ccc(OCc3ccccc3)cc2o1` [Example 55, 3-[(6-benzyloxy-benzofuran-2-ylmethyl)-amino]-propan-1-ol] returned a melting point of 145 to 147 °C. For the same molecule, in data set [1] (read-out: 5-HT6 Binding Ki), the Ki is 1180 nM.
The like results for `O=c1ccc2ccc(OCCCNCC3CCc4ccc(OCc5ccccc5)cc4O3)cc2o1` (stereo not shown) [Example 35, 7-{3-[(7-benzyloxy-chroman-2-ylmethyl)-amino]-propoxy}-chromen-2-one] were, in that order, 63 to 68 °C and 29 nM.
On to `OCCCNCC1CCc2ccc(OCCc3ccccc3)cc2O1` (stereo not shown) [Example 22, 3-{[(7-(Phenethyloxy)chroman-2-ylmethyl]amino}propan-1-ol Hydrochloride], for which the Ki in data set [1] (read-out: 5-HT6 Binding Ki) was found to be 101 nM.
Take `CN(CCCO)CC1CCc2ccc(OCc3ccccc3)cc2O1` (stereo not shown) [Example 30, 3-{[(7-benzyloxy)chroman-2-ylmethyl]methylamino}propan-1-ol Fumaric Acid Salt]: in data set [1] (read-out: 5-HT6 Binding Ki), the Ki is 27 nM.
On the same count and under the same terms, next, `c1ccc(CNCC2CCc3ccc(OCc4ccccc4)cc3O2)cc1` (stereo not shown) [Example 7, Benzyl-[(7-benzyloxy)chroman-2-yl]methylamine Hydrochloride]: 26 nM; `OCCCNCC1CCc2ccc(OCc3ccccc3Cl)cc2O1` (stereo not shown) [Example 14, 3-{[7-(2-chloro-benzyloxy)-chroman-2-ylmethyl]-amino}-propan-1-ol]: 38 nM.
Same read-out and setting: in the case of `OCCNCC1CCc2ccc(OCc3ccccc3)cc2O1` (stereo not shown) [Example 9, 2-[(7-benzyloxy-chroman-2-ylmethyl)-amino]-ethanol] it was 12 nM.
Same read-out and setting: next, `OCCCNCC1CCc2cc(Cl)c(OCc3ccccc3)cc2O1` (stereo not shown) [Example 29, 3-{[(7-Benzyloxy)-6-chlorochroman-2-ylmethyl]amino}propan-1-ol Fumaric Acid Salt]: 34 nM.
`O=[N+]([O-])c1ccc(OCCCNCC2CCc3ccc(OCc4ccccc4)cc3O2)cc1` (stereo not shown) [Example 32, (7-benzyloxy-chroman-2-ylmethyl)-[3-(4-nitro-phenoxy)-propyl]-amine] showed a melting point of 118 to 120 °C. Further, in data set [1] (read-out: 5-HT6 Binding Ki), the Ki came out at 157 nM.
`OCCCNCC1Cc2ccc(OCc3ccccc3)cc2O1` (stereo not shown) [Example 53, 3-[(6-benzyloxy-2,3-dihydro-benzofuran-2-ylmethyl)-amino]-propan-1-ol] registered a melting point of 125 to 127 °C. Also, the Ki in data set [1] (read-out: 5-HT6 Binding Ki) worked out at 339 nM.
Regarding `OCCCNCC1CCc2ccc(OCc3ccccc3Cl)cc2O1` (stereo not shown) (as salt: hydrochloride) [Example 14, 3-{[7-(2-chloro-benzyloxy)-chroman-2-ylmethyl]-amino}-propan-1-ol], the melting point was 114 to 115 °C.
Regarding `NCC1CCc2ccc(OCc3ccccc3)cc2O1` (stereo not shown) [Example 6, [(7-Benzyloxy)chroman-2-yl]methylamine Hydrochloride], the inhibition constant (Ki) in data set [1] (read-out: 5-HT6 Binding Ki) is 15 nM.
Same read-out and setting: next, `CCCCOCCCNCC1CCc2ccc(OCc3ccccc3)cc2O1` (stereo not shown) [Example 8, (7-benzyloxy-chroman-2-ylmethyl)-(3-butoxy-propyl)-amine]: 16 nM.
`OCCNCC1CCc2ccc(OCc3ccccc3)cc2O1` (stereo not shown) (as salt: hydrochloride) [Example 9, 2-[(7-benzyloxy-chroman-2-ylmethyl)-amino]-ethanol] yielded a melting point of 200 to 201 °C.

The values are drawn from US6638972B2, “Chroman and benzofuran derivatives as 5-hydroxytryptamine-6 ligands” (Wyeth, priority 2001, dated 2003).
